# Reference: PMC4106981 (Neuropharmacology, 2014)
# Structures can show the parent of a compound that is named as a salt.
# Assays:
# Male ICR mice [1] = experiment: Nicotine conditioned place preference; format: in vivo, mouse
# Male ICR mice [2] = conditions: chronic nicotine 36 mg/kg/day in minipumps for 7 days, after removing the mini pumps
# [3] = CYP2A(4/5) null mouse; ref Wei et al., 2013; cited from earlier work
# Male ICR mice [4] = experiment: Spontaneous nicotine withdrawal and its reversal: hot plate hyperalgesia; format: in vivo, mouse; conditions: chronic nicotine 36 mg/kg/day in minipumps for 7 days, after removing the mini pumps
# Male ICR mice [5] = experiment: Activity counts in the drug-paired compartment on CPP test day; format: in vivo, mouse; conditions: mean ± S.E.M., n=6-8
# Male ICR mice [6] = experiment: Mecamylamine-precipitated nicotine withdrawal: elevated plus maze; format: in vivo, mouse
# human CYP2A6 = conditions: ref Zhang et al., 2001; Damaj et al., 2007; cited from earlier work
# Male ICR mice [7] = experiment: Mecamylamine-precipitated nicotine withdrawal: somatic signs; format: in vivo, mouse; conditions: methoxsalen 15 mg/kg i.p. 15 min before nicotine 2 mg/kg s.c. three times daily for 4 days; mecamylamine 2 mg/kg s.c. on day 5
# [8] = Plasma nicotine and cotinine levels in the CPP test; format: in vivo, mouse
Compound,"Nicotine conditioned place preference (Male ICR mice [1]; nicotine 0.1 mg/kg s.c. alone (vehicle pretreatment), vs vehicle-treated group)",Number of somatic signs in spontaneous withdrawal (Male ICR mice [2]),Decrease in rate of nicotine clearance [3],Time spent on the hot-plate in spontaneous withdrawal (Male ICR mice [4]),Activity counts in the drug-paired compartment on test day (Male ICR mice [5]; methoxsalen 15 mg/kg i.p. + nicotine 0.1 mg/kg s.c.),Activity counts in the drug-paired compartment on test day (Male ICR mice [5]; methoxsalen 15 mg/kg i.p. + saline),Activity counts in the drug-paired compartment on test day (Male ICR mice [5]; methoxsalen 30 mg/kg i.p. + nicotine 0.1 mg/kg s.c.),Activity counts in the drug-paired compartment on test day (Male ICR mice [5]; methoxsalen 30 mg/kg i.p. + saline),Activity counts in the drug-paired compartment on test day (Male ICR mice [5]; methoxsalen 45 mg/kg i.p. + nicotine 0.1 mg/kg s.c.),Activity counts in the drug-paired compartment on test day (Male ICR mice [5]; methoxsalen 45 mg/kg i.p. + saline),Nicotine conditioned place preference (Male ICR mice [1]; methoxsalen 45 mg/kg i.p. 15 min prior to nicotine 0.1 mg/kg s.c.),Nicotine conditioned place preference (Male ICR mice [1]; methoxsalen 15 and 30 mg/kg i.p. 15 min prior to nicotine 0.1 mg/kg s.c.),"Number Crossovers (Mean ± SEM) in the plus-maze test (Male ICR mice [6]; Methoxsalen 15 mg/kg i.p. / Vehicle / Mecamylamine 2 mg/kg s.c., 5 min, n=5-7)","Average time spent in open arms (elevated plus maze) (Male ICR mice [6]; methoxsalen 15 mg/kg i.p. 15 min before nicotine 2 mg/kg s.c. three times daily for 4 days, mecamylamine 2 mg/kg s.c. on day 5)",Inhibition of human CYP2A6 (human CYP2A6),Somatic withdrawal signs (Male ICR mice [7]),Effect on nicotine plasma levels ([8]; highest dose of methoxsalen (45 mg/kg i.p.) before nicotine 0.1 mg/kg s.c.),"Effect on nicotine plasma levels ([8]; methoxsalen 15, 30, 45 mg/kg i.p. 15 min before nicotine 0.1 mg/kg s.c., blood 20 min after nicotine, last conditioning day)"
"CN1CCC[C@H]1c1cccnc1 [Nicotine, (−)-1-Methyl-2-(3-pyridyl) pyrrolidine (+)-bitartrate salt]",did not induce place preference,significantly increased,90%,decreased,,,,,,,,,,,,,,
"COc1c2occc2cc2ccc(=O)oc12 [Methoxsalen, 8-methoxypsoralen]",,,,,524 ± 69,561 ± 83,488 ± 111,470 ± 105,513 ± 103,503 ± 89,no longer significant,produced a significant CPP,6.0 ± 0.8,further decrease,potent inhibitor,significant somatic withdrawal signs,doubled,significantly increased
